# Test system: macrophage RAW264.7
# Test: Evaluation of antioxidant capacity with macrophage RAW264.7 biosensor (PMA stimulation, differential pulse voltammetry)
# Assay type: cell-based
# Conditions: 0.6% solution in absolute ethanol; 100 ng/mL PMA, 10 min; 0.1 M PBS
# Procedure: The electrochemical experiments in 3) can be a differential pulse voltammetry (DPV), and the DPV conditions can be as follows: scanning range: -0.2 to 0.6 V, amplitude: 0.05 V.
# The relative antioxidant capacity value in 5) can be calculated by the following equation:
# [formula] where RAC is the relative antioxidant capacity value, I0 is the peak current obtained in the presence of 100 ng/mL PMA, Is is the peak current in the presence of the test sample, and I is the peak current in the absence of PMA.
# immersing a third biosensor in Tyrode's buffer at 37° C. for 10 min, washing the third biosensor with PBS buffer for 3 times, connecting the third biosensor to a third electrochemical workstation, and conducting an electrochemical experiment of the third biosensor in a solution containing 1.0 mM Fe(CN)6^3−, 1.0 mM Fe(CN)6^4− or 0.1 M PBS, recording the current signal, reading the peak current and marking as I.
# In the following examples, the differential pulse voltammetry is selected as the electrochemical experiment method.
# Positive control: a first biosensor was immersed in Tyrode's buffer at 37° C. (preparation of Tyrode's solution: 1000 mL Tyrode's solution: NaCl 8.0 g, 10% KCl 2.0 mL (0.2 g), 10% MgSO4.7H2O 2.6 mL (0.26 g), 5% NaH2PO4.2H2O 1.3 mL (0.065 g), NaHCO3 1.0 g, 1 M CaCl2 1.8 mL (0.2 g), glucose 1.0 g), and PMA was then added to a concentration of 100 ng/mL. 10 min later, the first biosensor was washed with PBS buffer for 3 times (phosphate buffered saline) at pH=7.4, and then was connected to the electrochemical workstation. The first biosensor was electrochemically detected in a solution containing 1.0 mM Fe(CN)6^3−, and the current signal was recorded and the peak current was read as I0=84.6 μA.
# Blank control: a third biosensor was immersed in Tyrode's buffer at 37° C. […] The […] was electrochemically detected in a solution containing 1.0 mM Fe(CN)6^3−, and the current signal was recorded and the peak current was read as I=21.5 μA. […]
# 3) Electrochemical experiment: the second biosensor was used for electrochemical experiment in a PBS solution containing 1.0 mM Fe(CN)6^3−. Subsequently, the current signal and the peak current ls1 were recorded and read, respectively. […]
# 3) Electrochemical experiment: the biosensor IV was used for electrochemical experiment in a solution containing 1.0 mM Fe(CN)6^4−. Subsequently, the current signal was recorded and the peak current Is2 was read, where Is2=24.7 μA. […]
# 3) Electrochemical experiment: the biosensor was used for electrochemical experiment in a solution containing 0.1 M (mol/L) PBS. Subsequently, the current signal was recorded and the peak current Is3 was read, where Is3=26.5 μA. […]
Compound,peak current Is4,peak current Is3,relative antioxidant value (RAC3),relative antioxidant value (RAC4)
"O=C1O[C@H]([C@@H](O)CO)C(O)=C1O [VC, Vitamin C]",25.3 μA,–,–,–
"Cc1c(C)c2c(c(C)c1O)CC[C@@](C)(CCC[C@H](C)CCC[C@H](C)CCCC(C)C)O2 [VE, Vitamin E]",–,26.5 μA,92.2%,94.2%

# Source: US11585779B2, “Biosensor and method of using the same for evaluation of antioxidant capacity” (Nanjing Agricultural University, priority 2017, dated 2023)
